Legend:
Assay type in all cases: physicochemical
[1] = Stability in pH 7.4 buffer assessed as compound hydrolysis measured over 8 hrs at 37 degC by 31P NMR analysis; details: pH 7.4, 8 h
[2] = Stability in pH 7.4 buffer assessed as rate constant of compound hydrolysis at 37 degC by 31P NMR analysis
[3] = Stability in pH 3 buffer assessed as half life at 37 degC by 31P NMR analysis
[4] = Stability in pH 3 buffer assessed as rate constant of compound hydrolysis at 37 degC by 31P NMR analysis
[5] = Stability in pH 7.4 buffer assessed as half life at 37 degC by 31P NMR analysis; details: for half-life: pH 7.4 buffer

For `CCOC(=O)[C@@H](NC(C)=O)[C@@H](C)OP(=O)([O-])N[C@@H](Cc1ccc(O)c(O)c1)C(=O)[O-].[K+].[K+]`, the Stability [1] was “Stable”, the K [2] was “Stable” and the half-life [3] was 5.5 h. For the same compound, the K [4] was 1.2 ×10⁻¹ /hr and the half-life [5] was > 8 h.
In the case of `CC(=O)N[C@H](C(=O)[O-])[C@@H](C)OP(=O)([O-])N[C@@H](Cc1ccc(O)c(O)c1)C(=O)[O-].[K+].[K+].[K+]`, the K [2] is reported as 7.2 ×10⁻¹ /hr, the half-life [3] is reported as < 0.0833 h and the K [4] is reported as “Unstable”. The half-life [5] was 0.92 h.
In the case of `CCOC(=O)CCOP(=O)([O-])N[C@@H](Cc1ccc(O)c(O)c1)C(=O)[O-].[K+].[K+]`, the Stability [1] is reported as “Stable”, the K [2] is reported as “Stable” and the half-life [3] is reported as 1.7 h. The K [4] was 4 ×10⁻¹ /hr and the half-life [5] was > 8 h.
In the case of `CC(=O)NCCOP(=O)([O-])N[C@@H](Cc1ccc(O)c(O)c1)C(=O)[O-].[K+].[K+]`, the Stability [1] is reported as “Stable”, the K [2] is reported as “Stable” and the half-life [3] is reported as 1.7 h. For the same compound, the K [4] was 4 ×10⁻¹ /hr and the half-life [5] was > 8 h.
With `CC(=O)N[C@@H](COP(=O)([O-])NCCc1ccc(O)c(O)c1)C(=O)[O-].[K+].[K+]` the K [2] was 5.7 ×10⁻² /hr, the half-life [3] was < 0.0833 h and the K [4] was “Unstable”. For the same compound, the half-life [5] was 12.1 h.
For `O=C([O-])CCCOP(=O)([O-])N[C@@H](Cc1ccc(O)c(O)c1)C(=O)[O-].[K+].[K+].[K+]`, the Stability [1] was “Stable”, the K [2] was “Stable” and the half-life [3] was 1.2 h. The K [4] was 5.4 ×10⁻¹ /hr and the half-life [5] was > 8 h.
With `CC(=O)N[C@@H](COP(=O)([O-])N[C@@H](Cc1ccc(O)c(O)c1)C(=O)[O-])C(=O)[O-].[K+].[K+].[K+]` the K [2] was 7 ×10⁻² /hr, the half-life [3] was < 0.0833 h and the K [4] was “Unstable”. For the same compound, the t1/2 ([5]; buffer) was 9.9 h.
For `O=C([O-])CCOP(=O)([O-])N[C@@H](Cc1ccc(O)c(O)c1)C(=O)[O-].[K+].[K+].[K+]`, the K [2] was “Unstable”, the half-life [3] was < 0.0833 h and the K [4] was “Unstable”. For the same compound, the half-life [5] was < 0.0833 h.
With `CCOC(=O)[C@H](COP(=O)([O-])N[C@@H](Cc1ccc(O)c(O)c1)C(=O)[O-])NC(C)=O.[K+].[K+]` the Stability [1] was “Stable”, the K [2] was “Stable” and the half-life [3] was 2.7 h. The K [4] was 2.5 ×10⁻¹ /hr and the half-life [5] was > 8 h.
